Laboratory results published in US20250288584A1, “COMBINATIONS COMPRISING POSITIVE ALLOSTERIC MODULATORS OR ORTHOSTERIC AGONISTS OF METABOTROPIC GLUTAMATERGIC RECEPTOR SUBTYPE 2 AND THEIR USE” (JANSSEN PHARMACEUTICA NV, priority 2014, published 2025).
“And” between values parts separate entries of the source, which are not always exact repeats. Equal entries are not always repeated. “Also recorded” adds a separate entry of the source.

Experiments:
Type in all cases: in vivo, mice
corneal kindled seizures = assay: Mouse corneal kindling model; settings: 100 mg/kg s.c.; Racine score 0-5
Experimental: After the mice reached a stable kindled state, the test compound or vehicle was administered and, at the previously determined TPE, each animal was given the electrical stimulus indicated above. […] One dose of LEV and two doses of Co.

[1] = system: 6 Hz (32 mA) psychomotor seizures; assay: 6 Hz psychomotor seizure test, 32 mA (incl. TPE determination)
Experimental: Test compounds were administered using an optimal fluid volume to body fluid ratio. Test compounds were administered to mice in a volume of 0.01 mL/g of body weight (White H. S., et al., General Principles: Experimental selection, quantification, and evaluation of antiepileptic drugs, in Antiepileptic Drugs, Fourth Edition, […], and B. S. Meldrum, Editors. 1995, Raven Press, Ltd.: New York, pp. 99-110). For subcutaneous (s.c.) administration, the test compounds were administered into a loose fold of skin along the back of the animal except compound 6-b, which was administered orally (p.o). […] The animals were maintained on an adequate diet (Prolab RMH 3000) and allowed free access to food and water, except during the short time they were removed from their cage for testing. Animals newly received in the laboratory were allowed sufficient time to correct for possible food and water restriction incurred during transit before being employed in testing. All mice were housed in plastic cages in specially constructed rooms with controlled humidity, exchange of air and controlled lighting (12 hours on-12 hours off). The animals were housed, fed, and handled in a manner consistent with the recommendations in the National Council Publication, “Guide for the Care and Use of Laboratory Animals”. In the determination of an ED50 or TD50 for each test compound, the first dose administered is usually the same dose as that used in a successful TPE determination. […] Third and fourth doses were selected to produce an evenly spaced dose response line. […] TPE was determined using the 6 Hz (32 mA) assay. […] The 6 Hz seizure test is used as a model of pharmacoresistant limbic seizures. […] Focal seizures were induced in mice via corneal stimulation (6 Hz, 0.2 msec rectangular pulse, 3 sec duration; Barton et al. 2001). Mice were tested at either 32 mA or 44 mA. […] The seizures that arise from corneal stimulation in this assay are characterized by a minimal clonic phase followed by stereotyped automatistic behaviors including stun, forelimb clonus, twitching of the vibrissae, and Straub-tail. Animals not displaying these behaviors were considered protected.

[2] = Minimal motor impairment (rotarod)
Experimental: Acute MMI was assessed by a combination of direct observations of the animal for overt symptoms of the animal's neurological or muscular function. In mice, the rotarod procedure was used to disclose minimal muscular or neurological impairment. When a mouse is placed on a rod that rotates at a speed of 6 rpm, the animal can maintain its equilibrium for long periods of time. The animal was considered toxic if it fell off this rotating rod three times during a 1 min period.
In the determination of an ED50 or TD50 for each test compound, the first dose administered is usually the same dose as that used in a successful TPE determination.
If the initial dose employed was effective or toxic in more than 50% of animals, the next dose would be one-half that of the initial dose; if the initial dose was effective or toxic in less than 50% of animals, the following dose would be twice that of the initial dose. Third and fourth doses were selected to produce an evenly spaced dose response line. There should be a minimum of 4 points either including or lying between 0 and 100%.

[3] = system: 6 Hz (44 mA) psychomotor seizures; assay: 6 Hz psychomotor seizure test, 44 mA (alone, combination with LEV, isobolographic study)
Experimental: Test compounds were administered using an optimal fluid volume to body fluid ratio. Test compounds were administered to mice in a volume of 0.01 mL/g of body weight (White H. S., et al., General Principles: Experimental selection, quantification, and evaluation of antiepileptic drugs, in Antiepileptic Drugs, Fourth Edition, […], and B. S. Meldrum, Editors. 1995, Raven Press, Ltd.: New York, pp. 99-110). For subcutaneous (s.c.) administration, the test compounds were administered into a loose fold of skin along the back of the animal except compound 6-b, which was administered orally (p.o). […] The animals were maintained on an adequate diet (Prolab RMH 3000) and allowed free access to food and water, except during the short time they were removed from their cage for testing. Animals newly received in the laboratory were allowed sufficient time to correct for possible food and water restriction incurred during transit before being employed in testing. All mice were housed in plastic cages in specially constructed rooms with controlled humidity, exchange of air and controlled lighting (12 hours on-12 hours off). The animals were housed, fed, and handled in a manner consistent with the recommendations in the National Council Publication, “Guide for the Care and Use of Laboratory Animals”. In the determination of an ED50 or TD50 for each test compound, the first dose administered is usually the same dose as that used in a successful TPE determination. […] Third and fourth doses were selected to produce an evenly spaced dose response line. […] The 6 Hz seizure test is used as a model of pharmacoresistant limbic seizures. […] Focal seizures were induced in mice via corneal stimulation (6 Hz, 0.2 msec rectangular pulse, 3 sec duration; Barton et al. 2001). Mice were tested at either 32 mA or 44 mA. […] The seizures that arise from corneal stimulation in this assay are characterized by a minimal clonic phase followed by stereotyped automatistic behaviors including stun, forelimb clonus, twitching of the vibrissae, and Straub-tail. Animals not displaying these behaviors were considered protected. […] In addition to recording the efficacy and toxicity data for these compounds alone or in combination, both plasma and brain samples were collected from each of the groups for pharmacokinetic/pharmacokinetic analysis. No pharmacokinetic interaction was observed based on compound levels in the plasma and brain samples (data not shown). Isobolographic studies were conducted for the combined administration of Co. […] Studies were conducted according to previously described methods (Madsen et al. 2011). Initial ED50 values were determined for both Co. […] Co. […] Doses used were proportional to calculated ED50 values. […] Experimental treatment doses (see Table 4) were based on theoretical values and adjusted according to observed effects. Experimentally determined ED50 (+SEM) values for each fixed dose-ratio combination were compared to the theoretical values (t-test) for statistical purposes. […] Subsequently, the experimental combined doses were determined for the same paradigms in the 6 Hz seizure test (Table 4 below).

[4] = 20 mg/kg s.c., 0.5 h, 32 mA group
[5] = 40 mg/kg s.c., 0.5 h, 32 mA group

## CCCCn1ccc(N2CCC(c3ccccc3)CC2)c(Cl)c1=O [Co. No. 2-a]
Corneal kindled seizures
  Seizure score (dose) Corneal kindling: 4.4
[1]; 2.5 mg/kg s.c., 0.5 h
  # protected/# tested: 0/8
[1]; 5 mg/kg s.c., 0.5 h
  # protected/# tested: 0/8
[1]; 10 mg/kg s.c., 0.5 h
  # protected/# tested: 4/8
[1]; 20 mg/kg s.c., 0.5 h
  # protected/# tested: 6/8
[1]; 40 mg/kg s.c., 0.5 h
  # protected/# tested: 8/8
[1]; s.c., at TPE
  ED50 (95% CI) 32 mA: ED50 (95% CI): 12.2 mg/kg (8.4 to 17.4)
[2]; 2.5 mg/kg s.c., 0.5 h, 32 mA group
  # rotarod motor impairment/# tested: 1/8
[2]; 5 mg/kg s.c., 0.5 h, 32 mA group
  # rotarod motor impairment/# tested: 0/8
[2]; 10 mg/kg s.c., 0.5 h, 32 mA group
  # rotarod motor impairment/# tested: 0/8
[2]; 10 mg/kg s.c., 0.5 h, 44 mA group
  # rotarod motor impairment/# tested: 1/8 and 0/8
[2]; 15 mg/kg s.c., 0.5 h, 44 mA group
  # rotarod motor impairment/# tested: 1/8
[2]; [4]
  # rotarod motor impairment/# tested: 3/8
[2]; 20 mg/kg s.c., 0.5 h, 44 mA group
  # rotarod motor impairment/# tested: 0/8
[2]; [5]
  # rotarod motor impairment/# tested: 2/8
[2]; 40 mg/kg s.c., 0.5 h, 44 mA group
  # rotarod motor impairment/# tested: 4/8
[2]; mouse, in vivo, sc, rotarod
  TD50 at 0.5 h: > 40 mg/kg
[3]; 10 mg/kg s.c.
  activity when administered alone: ^aCo. No. 2-a (s.c.) 10 mg/kg tested in combination with LEV (i.p.); Co. No. 2-a 10 mg/kg, not active when administered alone; also recorded: ^bCo. No. 2-a (s.c.) 10 mg/kg tested in combination with LEV (i.p.); Co. No. 2-a 10 mg/kg, not active when administered alone
[3]; 100 mg/kg s.c.
  % protection 44 mA: 50% protection at
[3]; Mus musculus, sc, 0.5 h, 10 mg/kg s.c., 0.5 h, read-out: # protected/# tested (converted)
  responders at 10 mg/kg: 0%
[3]; Mus musculus, sc, 0.5 h, 15 mg/kg s.c., 0.5 h, read-out: # protected/# tested (converted)
  responders at 15 mg/kg: 25%
[3]; Mus musculus, sc, 0.5 h, 20 mg/kg s.c., 0.5 h, read-out: # protected/# tested (converted)
  responders at 20 mg/kg: 37.5%
[3]; Mus musculus, sc, 0.5 h, 40 mg/kg s.c., 0.5 h, read-out: # protected/# tested (converted)
  responders at 40 mg/kg: 100%
[3]; Mus musculus, sc, at TPE, compound alone, read-out: ED50 (95% CI) 44 mA
  ED50: 21 mg/kg

## Cc1cc(-c2nc(CN3CCNCC3)no2)cc2c1C(=O)N(Cc1ccc(OC(F)(F)F)cc1)C2 [CAS 1092453-15-0, 2,3-dihydro-7-methyl-5-[3-(1-piperazinylmethyl)-1,2,4-oxadiazol-5-yl]-2-[[4-(trifluoromethoxy)phenyl]methyl]-1H-isoindol-1-one, reference compound]
[1]; 20 mg/kg s.c., 0.25 h
  # protected/# tested: 1/4
[1]; 20 mg/kg s.c., 0.5 h
  # protected/# tested: 0/4
[1]; 20 mg/kg s.c., 1 h
  # protected/# tested: 1/4
[1]; 20 mg/kg s.c., 2 h
  # protected/# tested: 0/4
[1]; 20 mg/kg s.c., 4 h
  # protected/# tested: 0/4
[1]; 40 mg/kg s.c., 0.25 h
  # protected/# tested: 1/4
[1]; 40 mg/kg s.c., 0.5 h
  # protected/# tested: 1/4
[1]; 40 mg/kg s.c., 1 h
  # protected/# tested: 1/4
[1]; 40 mg/kg s.c., 2 h
  # protected/# tested: 0/4
[1]; 40 mg/kg s.c., 4 h
  # protected/# tested: 0/4
[1]; 80 mg/kg s.c., 0.25 h
  # protected/# tested: 0/4
[1]; 80 mg/kg s.c., 0.5 h
  # protected/# tested: 0/4
[1]; 80 mg/kg s.c., 1 h
  # protected/# tested: 1/4
[1]; result in words
  activity in the 6 Hz 32 mA test: Low activity; also recorded: did not show activity
[2]; 20 mg/kg s.c., 0.25 h, 32 mA group
  # rotarod motor impairment/# tested: 0/4
[2]; [4]
  # rotarod motor impairment/# tested: 0/4
[2]; 20 mg/kg s.c., 1 h, 32 mA group
  # rotarod motor impairment/# tested: 0/4
[2]; 20 mg/kg s.c., 2 h, 32 mA group
  # rotarod motor impairment/# tested: 0/4
[2]; 20 mg/kg s.c., 4 h, 32 mA group
  # rotarod motor impairment/# tested: 0/4
[2]; 40 mg/kg s.c., 0.25 h, 32 mA group
  # rotarod motor impairment/# tested: 0/4
[2]; [5]
  # rotarod motor impairment/# tested: 0/4
[2]; 40 mg/kg s.c., 1 h, 32 mA group
  # rotarod motor impairment/# tested: 0/4
[2]; 40 mg/kg s.c., 2 h, 32 mA group
  # rotarod motor impairment/# tested: 0/4
[2]; 40 mg/kg s.c., 4 h, 32 mA group
  # rotarod motor impairment/# tested: 0/4
[2]; 80 mg/kg s.c., 0.25 h, 32 mA group
  # rotarod motor impairment/# tested: 0/4
[2]; 80 mg/kg s.c., 0.5 h, 32 mA group
  # rotarod motor impairment/# tested: 0/4
[2]; 80 mg/kg s.c., 1 h, 32 mA group
  # rotarod motor impairment/# tested: 1/4
[3]; result in words
  activity in the 6 Hz 44 mA test: did not show activity
  pharmacodynamic interaction with LEV in the 6 Hz model: did not display synergy
